Experimental data taken from patent publication US20190350964A1, “ANTI-CANCER COMPOUNDS AND USES THEREOF” (NATIONAL UNIVERSITY OF SINGAPORE, priority 2016, published 2019).

Experiments:
[1] = biological target: T1, Retinal rod rhodopsin-sensitive cGMP 3′,5′-cyclic phosphodiesterase subunit delta (Homo sapiens, UniProt O43924); experiment: MS-CETSA in normal BJ cell lysates; assay type: binding; settings: lysate, 100 μM compound
T1 construct: After collecting data covering >8,000 proteins in lysates of normal BJ cells; endogenous in cells; host or cells: normal BJ cells, lysate
Method: (§2) Target identification was performed by cellular thermal shift assay (CETSA) coupled with quantitative mass spectrometry. In brief, normal BJ cells were lysed by combination of freeze/thaw and mechanical shearing with needle in buffer [50 mM HEPES (pH 7.5), 5 mM β-glycerophosphate, 0.1 mM Sodium Vanadate, 10 mM MgCl2, 1 mM TCEP and 1× Protease inhibitor Cocktail]. The cell debris was removed by centrifugation at 20,000 g for 20 min at 4° C. […] Each lysate was divided into 10 aliquots for heat treatment at the respective temperatures for 3 min in a 96-well thermocycler, followed by 3 min at 4° C. The lysate was centrifuged at 20,000 g for 20 min at 4° C. and the supernatant was transferred into microtubes for MS sample preparation.
(§3) After lysis, at least 100 μg of the protein (measured with a BCA assay) was subjected to reduction, denaturation and alkylation. Samples were subsequently incubated with sequencing grade LysC (Wako) and trypsin (Promega) for digestion overnight at 37° C. The digested samples were dried using a centrifugal vacuum evaporator, solubilized in 100 mM TEAB. […]
(§4) Proteins for which a low temperature plateau was not present were deleted using a cut off >0.85 for the average reading of the first three temperature points (in our experience proteins melting already at −37° C. are more prone to give false positives in a shift analysis).

normal BJ cells = experiment: BrdU incorporation / cell growth arrest; assay type: cell-based, human
Method: (§1) Cell death was assessed via Annexin V and/or PI (propidium iodide) staining according to the manufacturer's instructions (eBioscience). Cell growth arrest was assessed by direct measurement of DNA synthesis through incorporation of the nucleoside analog bromodeoxyuridine (BrdU). Briefly, BrdU (30 μM, Sigma-Aldrich) was added for 2 h before harvesting cells. Cells were subsequently stained with Pacific Blue-conjugated BrdU antibody (Invitrogen) for 1 h followed by PI staining. Stained cells were analyzed by MACSQuant (MACS). Three independent experiments were performed in triplicate. The percentage of Annexin V/PI- or BrdU-positive cells was quantified using Flow Jo software (Becton Dickinson). Where indicated, the combined activity of caspase-3/7 was determined using the caspase-Glo 3/7 Assay Kit (Promega) and normalized to the number of viable cells as determined by MTT assay.

[2] = tested on: Ras-driven glioma initiating cells (GICs); experiment: Sphere formation assay; assay type: cell-based, murine; settings: 5 μM, 7 days
Method: Murine glioma-initiating cells (GICs) were established and cultured as described previously (Saga, I. et al., Neuro. Oncol. 16: 1048-1056 (2014)). Briefly, Ink4a/Arf-null neural stem/progenitor cells were transduced with human H-RasV12 and DsRed and propagated in serum-free Dulbecco modified Eagle medium (DMEM)/F12 (Sigma-Aldrich) supplemented with recombinant epidermal growth factor (EGF; PeproTech) and basic fibroblast growth factor (PeproTech) at 20 ng/ml, heparan sulfate (Sigma-Aldrich) at 200 ng/ml and B27 supplement without vitamin A (Invitrogen, Carlsbad, Calif.). GICs were dissociated and plated in 96-well plates at a density of 100 cells/well. […] Three plates were prepared for each treatment group, and 30 wells were quantified per plate. Images were acquired on a BZ-X700 inverted fluorescence microscope (Keyence). Quantification was performed by Nikon NIS-element software (n=90).

NCC19 = experiment: MTT cytotoxicity test (GI50); assay type: cell-based; settings: Homo sapiens; NCC19, cancer, gastric; MTT 72 h
cancer cell lines = experiment: FACS of subG1 (PI) and Annexin V in cancer and normal cell lines; assay type: cell-based, human; settings: 2.5 μM and 5 μM, 48 h
Method: as §1

Liprin-beta-1 = biological target: T2, Liprin-beta-1 (Homo sapiens, UniProt Q86W92); experiment: MS-CETSA in normal BJ cell lysates; assay type: binding; settings: lysate, 100 μM compound
T2 construct: After collecting data covering >8,000 proteins in lysates of normal BJ cells; endogenous in cells; host or cells: normal BJ cells, lysate
Method: as §2, §3, §4

[3] = biological target: T3, Coproporphyrinogen-III oxidase, mitochondrial (Homo sapiens, UniProt P36551); experiment: MS-CETSA in normal BJ cell lysates; assay type: binding; settings: lysate, 100 μM compound
T3 construct: After collecting data covering >8,000 proteins in lysates of normal BJ cells; endogenous in cells; host or cells: normal BJ cells, lysate
Method: as §2, §3, §4

[4] = biological target: T4, Arsenite methyltransferase (Homo sapiens, UniProt Q9HBK9); experiment: MS-CETSA in normal BJ cell lysates; assay type: binding; settings: lysate, 100 μM compound
T4 construct: After collecting data covering >8,000 proteins in lysates of normal BJ cells; endogenous in cells; host or cells: normal BJ cells, lysate
Method: as §2, §3, §4

NCC24 = experiment: MTT cytotoxicity test (GI50); assay type: cell-based; settings: Homo sapiens; NCC24, cancer, gastric; MTT 72 h
Ras/Raf/MEK/ERK pathway = experiment: Immunoblot of ERK phosphorylation; assay type: cell-based, human; settings: normal BJ cells, 24 h
Method: Total cell lysates were prepared with 1% triton lysis buffer [25 mM Tris HCl (pH 8.0), 150 mM NaCl, 1% triton-X100, 1 mM dithiothreitol (DTT), protease inhibitor mix (Complete Mini, Roche) and phosphatase inhibitor (PhosphoStop, Roche)] and subjected to SDS-PAGE. The following antibodies were used for immunoblotting: anti-β-actin (Sigma-Aldrich), anti-cleaved PARP (Abcam, #ab32064), anti-PI5P4Kα (#5527), anti-PI5P4Kβ (#9694), anti-cleaved caspase-3 (#9664), anti-pHistone H3(Ser10) (#3377), anti-pAkt(S473) (#9271), anti-pAkt(T308) (#13038), anti-total Akt (#9272), anti-p70S6K(T389) (#9234), anti-total p70S6K (#9202), anti-pErk (#4370), anti-γ-Histone H2AX (#9718) (Cell signaling) and anti-PIK3IP1 (Proteintech, #16826-1-AP). The secondary antibodies used were sheep anti-mouse IgG HRP and donkey anti-rabbit IgG HRP (Amersham; 1:2000 dilution). Immunoreactive proteins were visualized using ECL reagent (Amersham). Where indicated, intensities of protein bands were quantified by densitometry (Odyssey V3.0), normalized to their loading controls and then calculated as fold expression change relative to DMSO control.

DLD1 = experiment: MTT cytotoxicity test (GI50); assay type: cell-based; settings: Homo sapiens, DLD-1; DLD1, cancer, colon; MTT 72 h
human cancer cell lines = experiment: MTT cytotoxicity test, panel of human cancer cell lines; assay type: cell-based; settings: mean over panel of human cancer cell lines; MTT 72 h
WI38 = experiment: MTT cytotoxicity test (GI50); assay type: cell-based; settings: Homo sapiens, WI-38; WI38, normal, lung; MTT 72 h

T1 sequence (O43924 whole entry): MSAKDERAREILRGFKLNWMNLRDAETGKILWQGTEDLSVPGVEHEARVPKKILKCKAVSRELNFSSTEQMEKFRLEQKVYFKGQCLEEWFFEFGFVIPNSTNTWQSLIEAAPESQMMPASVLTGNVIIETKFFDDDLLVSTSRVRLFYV
T4 sequence (Q9HBK9 whole entry): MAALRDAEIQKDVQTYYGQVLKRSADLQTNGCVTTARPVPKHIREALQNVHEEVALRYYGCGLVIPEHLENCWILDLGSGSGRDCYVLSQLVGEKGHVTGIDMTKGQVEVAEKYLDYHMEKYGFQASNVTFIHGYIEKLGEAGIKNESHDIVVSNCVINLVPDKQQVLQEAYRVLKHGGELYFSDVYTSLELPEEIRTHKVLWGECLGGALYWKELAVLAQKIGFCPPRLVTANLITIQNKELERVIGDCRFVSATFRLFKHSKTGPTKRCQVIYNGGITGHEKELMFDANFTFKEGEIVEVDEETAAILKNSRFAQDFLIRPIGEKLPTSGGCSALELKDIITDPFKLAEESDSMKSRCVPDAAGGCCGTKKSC
T3 sequence (P36551 111-454): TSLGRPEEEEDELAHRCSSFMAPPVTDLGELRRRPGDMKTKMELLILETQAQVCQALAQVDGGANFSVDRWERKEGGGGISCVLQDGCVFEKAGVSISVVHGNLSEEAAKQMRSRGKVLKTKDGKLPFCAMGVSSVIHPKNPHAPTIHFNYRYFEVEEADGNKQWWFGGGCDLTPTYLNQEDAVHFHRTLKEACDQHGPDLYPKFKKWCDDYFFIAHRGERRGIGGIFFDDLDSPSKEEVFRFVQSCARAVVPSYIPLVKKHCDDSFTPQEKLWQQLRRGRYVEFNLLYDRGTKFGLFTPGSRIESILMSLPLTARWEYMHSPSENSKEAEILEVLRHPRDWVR
T2 sequence (Q86W92 whole entry): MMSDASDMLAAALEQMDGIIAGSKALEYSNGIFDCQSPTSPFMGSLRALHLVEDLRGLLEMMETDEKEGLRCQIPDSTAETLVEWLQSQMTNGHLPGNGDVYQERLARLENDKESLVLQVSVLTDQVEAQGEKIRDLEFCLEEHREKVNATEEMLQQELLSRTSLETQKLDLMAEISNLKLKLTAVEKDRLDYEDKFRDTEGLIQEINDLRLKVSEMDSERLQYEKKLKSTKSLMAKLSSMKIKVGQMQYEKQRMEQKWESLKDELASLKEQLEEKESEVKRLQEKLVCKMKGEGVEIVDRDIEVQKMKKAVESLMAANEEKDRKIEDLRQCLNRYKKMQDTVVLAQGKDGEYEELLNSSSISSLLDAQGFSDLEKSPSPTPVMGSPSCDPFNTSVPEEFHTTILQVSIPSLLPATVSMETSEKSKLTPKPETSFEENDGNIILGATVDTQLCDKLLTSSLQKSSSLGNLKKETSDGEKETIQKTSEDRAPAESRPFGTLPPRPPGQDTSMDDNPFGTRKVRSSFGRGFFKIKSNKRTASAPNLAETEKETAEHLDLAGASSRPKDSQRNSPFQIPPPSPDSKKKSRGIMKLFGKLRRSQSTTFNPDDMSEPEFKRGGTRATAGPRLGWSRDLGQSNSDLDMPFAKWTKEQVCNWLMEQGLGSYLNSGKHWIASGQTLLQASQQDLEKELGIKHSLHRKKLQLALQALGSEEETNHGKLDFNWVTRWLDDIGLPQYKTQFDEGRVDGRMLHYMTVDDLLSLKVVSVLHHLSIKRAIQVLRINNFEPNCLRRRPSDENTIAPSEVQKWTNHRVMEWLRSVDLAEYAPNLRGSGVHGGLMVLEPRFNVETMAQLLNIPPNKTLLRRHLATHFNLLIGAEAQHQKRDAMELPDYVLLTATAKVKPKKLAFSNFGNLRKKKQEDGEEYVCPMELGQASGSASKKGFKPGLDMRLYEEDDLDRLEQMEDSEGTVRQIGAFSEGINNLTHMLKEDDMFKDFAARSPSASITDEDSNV

N#C/C(=C\c1cccc2cnccc12)c1c[nH]c2ccccc12 [a131, (Z)-2-(1H-indol-3-yl)-3-(5-isoquinolyl)prop-2-enenitrile]
ED score [1]: 0.3092 | ΔTm at 100 µM ([1]; read-out: mean Delta Tm): 3.02 °C | cell cycle arrest (BrdU incorporation) (normal BJ cells; 2.5 μM, 48 h): arrested normal BJ cells at the G1/S phase of the cell cycle with few BrdU incorporation | reversibility of growth arrest after drug removal (normal BJ cells; 5 μM for 2 or 4 days, then fresh media up to 11 days): transient and reversible after a131 removal | growth of GICs in tumor spheroid culture [2]: significantly suppressed growth | GI50 (NCC19): 4.6 µM | percentage of cells expressing Annexin V versus DMSO (cancer cell lines): significantly higher (p<0.0001) | percentage of subG1 population versus DMSO (cancer cell lines; cancer cells): significantly higher (p<0.0001) | ED score (Liprin-beta-1): 0.3387 | ΔTm at 100 µM (Liprin-beta-1; read-out: mean Delta Tm): 2.07 °C | ED score [3]: 0.3274 | ΔTm at 100 µM ([3]; read-out: mean Delta Tm): 1.61 °C | ED score [4]: 0.6214 | ΔTm at 100 µM ([4]; read-out: mean Delta Tm): 4.88 °C | GI50 (NCC24): 1.2 µM | inhibition of the Ras/Raf/MEK/ERK pathway (ERK phosphorylation) (Ras/Raf/MEK/ERK pathway): Neither a131 and a166 treatment nor PI5P4Ks knockdown inhibited | GI50 (DLD1): 1.2 µM | GI50 (human cancer cell lines): 1.7 µM | GI50 (WI38): 3.4 µM
